Common to all, as to format: cell-based
The subject of assay [1] is pFGFR4 in MDA-MB-453 cells. Briefly: FGFR4 signaling, pFGFR4 (MDA); Western blot (Method A), MSD (Method B), ELISA (Method C). Conditions: Homo sapiens. In general terms: In western blotting, separated proteins are transferred to a membrane and probed.
The subject of assay [2] is pFGFR4 in Huh7 cells. Briefly: FGFR4 signaling, pFGFR4 (Huh); MSD (Method B). Conditions: Homo sapiens.
Assay [3] deals with pFGFR4 in MDA-MB-453 cells. Nature of the assay: Washout experiment (duration of action on pFGFR4). Conditions: 1000-2000 nM for 1 hr, washed, up to 24 hr. As to the method: The cells were allowed to settle down for 4 hrs and were then maintained in low-serum (0.1% FBS) media overnight.
The following morning, the media was removed and the cells were treated with 1000-2000 nM of test compound in low-serum media for 1 hr. The cells were washed free of test compound (3×) with PBS (Invitrogen). One set of cells was immediately lysed as indicated above as the 0 hr time point. The remaining cells were incubated with the appropriate complete growth media (10-20% FBS) for 1, 2, 4, 8, 16 (in certain circumstances) and 24 hr. DMSO (0.5%) controls were collected at all time points.

[4] abbreviates: MDA-MB-453 cells, Method B (MSD) for signaling EC50 determination.
Where [5] appears, read: Huh-7, Huh7 cells, read-out: Signaling EC50 (nM) pFGFR4 (Huh).

As a reminder, the EC50 is the concentration needed to bring the measured effect to its halfway point.

Entries after “also recorded” stand apart in the source; their conditions may differ. Where two headings read alike, the source gives them in different places.

For the molecule `C=CC(=O)NC1CCCCC1Nc1ncc2c(n1)N(Cc1cscn1)C(=O)N(c1c(Cl)c(OC)cc(OC)c1Cl)C2` (racemic) [Compound I-69], the EC50 in assay [1] (setting [4]) is under 100 nM; in assay [2] (Huh-7, read-out: Signaling EC50 (nM) pFGFR4 (Huh)), 101 to 500 nM. The “duration of action against pFGFR4 signalling post washout” value (“duration of action” for short) in assay [3] was “prolonged inhibition of autophosphorylation of FGFR4; also recorded: prolonged duration of action”.
The molecule `CCC(=O)Nc1cccc(CN2C(=O)N(c3c(Cl)c(OC)cc(OC)c3Cl)Cc3cnc(Nc4ccccc4NC(=O)CC)nc32)c1` [Compound I-234] yielded a concentration giving a half-maximal response (EC50) in assay [1] (MDA-MB-453 cells, Method A (Western blot) for signaling EC50 determination) of 101 to 500 nM. The “duration of action” value in assay [3] is recorded as “does not show prolonged duration of action; also recorded: does not have PDA”.
Regarding `C=CC(=O)Nc1cc(C(=O)NC2CCN(C)CC2)ccc1Nc1ncc2c(n1)N(C)C(=O)N(c1cc(OC)cc(OC)c1)C2` [Compound I-151], the EC50 in assay [1] (setting [4]) is 501 to 999 nM; in assay [2] (setting [5]) it was over 1000 nM.
The corresponding values for `C=CC(=O)NC1CCCCC1Nc1ncc2c(n1)N(Cc1ccccc1)C(=O)N(c1c(Cl)c(OC)cc(OC)c1Cl)C2` (racemic) [Compound I-63] are 101 to 500 nM and under 100 nM.
The like results for `C=CC(=O)Nc1ccccc1Nc1ncc2c(n1)N(CC#N)C(=O)N(c1cc(OC)cc(OC)c1)C2` [Compound I-48] were, in that order, 101 to 500 nM and 101 to 500 nM.
In the case of `C=CC(=O)Nc1ccccc1Nc1ncc2c(n1)N(Cc1cccc(NC(=O)CC)c1)C(=O)N(c1c(Cl)c(OC)cc(OC)c1Cl)C2` [Compound I-1], the half-maximal effective concentration (EC50) in assay [1] (setting [4]) and in assay [2] (setting [5]) was under 100 nM in each case. In assay [3], the “duration of action” value was “prolonged duration of action; also recorded: has PDA”.
For `C=CC(=O)NC1COCC1Nc1ncc2c(n1)N(C)C(=O)N(c1c(Cl)c(OC)cc(OC)c1Cl)C2` (stereo not shown) [Compound I-126], the 50% effective concentration (EC50) in assay [1] (MDA-MB-453, MDA-MB-453 cells, Method B (MSD) for signaling EC50 determination) is under 100 nM; in assay [2] (setting [5]), under 100 nM.
Regarding `C=CC(=O)Nc1ccccc1Nc1ncc2c(n1)N(Cc1cn[nH]c1)C(=O)N(c1cc(OC)cc(OC)c1)C2` [Compound I-121], the EC50 in assay [1] (setting [4]) and in assay [2] (setting [5]) was under 100 nM each time.
Consider `C=CC(=O)Nc1ccccc1Nc1ncc2c(n1)N(CC1CC1)C(=O)N(c1cc(OC)cc(OC)c1Cl)C2` [Compound I-100], for which the concentration giving a half-maximal response (EC50) in assay [1] (setting [4]) and in assay [2] (setting [5]) was under 100 nM in each case.
As to `C=CC(=O)Nc1ccc(C(F)(F)F)cc1Nc1ncc2c(n1)N(C)C(=O)N(c1cc(OC)cc(OC)c1)C2` [Compound I-50], the EC50 in assay [1] (setting [4]) and in assay [2] (setting [5]) was 101 to 500 nM each time.

(Values after patent US10774052B2, “Heteroaryl compounds and uses thereof” (Celgene CAR LLC, priority 2013, dated 2020).)
